Results: ChEMBL document CHEMBL5233233, “Histone deacetylase 3 (HDAC3) inhibitors as anticancer agents: A review” (Eur J Med Chem, 2020)

Experiments:
Histone deacetylase 1 [1] = target: T1, Histone deacetylase 1 (Homo sapiens, UniProt Q13547); experiment: Inhibition of human HDAC1 using human HeLa cell nuclear extract at 1 uM measured after 60 mins by fluorescence assay; assay type: subcellular, Nucleus
Histone deacetylase 2 [2] = target: T2, Histone deacetylase 2 (Homo sapiens, UniProt Q92769); experiment: Inhibition of human HDAC2 using human HeLa cell nuclear extract at 1 uM measured after 60 mins by fluorescence assay; assay type: subcellular, Nucleus
T2 sequence (Q92769 whole entry): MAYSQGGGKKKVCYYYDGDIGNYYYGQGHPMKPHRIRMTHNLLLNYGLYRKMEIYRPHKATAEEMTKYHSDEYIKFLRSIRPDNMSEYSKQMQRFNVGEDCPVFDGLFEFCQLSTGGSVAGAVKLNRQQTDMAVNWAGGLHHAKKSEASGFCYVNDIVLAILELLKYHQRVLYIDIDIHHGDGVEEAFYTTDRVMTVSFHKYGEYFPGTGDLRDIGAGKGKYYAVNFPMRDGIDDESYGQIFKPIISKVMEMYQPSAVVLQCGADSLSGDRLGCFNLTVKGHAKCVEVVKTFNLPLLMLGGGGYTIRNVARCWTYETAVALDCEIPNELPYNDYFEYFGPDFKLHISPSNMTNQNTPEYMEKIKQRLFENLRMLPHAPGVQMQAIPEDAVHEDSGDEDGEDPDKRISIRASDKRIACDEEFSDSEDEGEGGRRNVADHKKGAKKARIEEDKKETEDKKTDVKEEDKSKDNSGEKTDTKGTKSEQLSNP

Histone deacetylase 3 [3] = target: T3, Histone deacetylase 3 (Homo sapiens, UniProt O15379); experiment: Inhibition of human HDAC3 using human HeLa cell nuclear extract at 1 uM measured after 60 mins by fluorescence assay; assay type: subcellular, Nucleus
T3 sequence (O15379 whole entry): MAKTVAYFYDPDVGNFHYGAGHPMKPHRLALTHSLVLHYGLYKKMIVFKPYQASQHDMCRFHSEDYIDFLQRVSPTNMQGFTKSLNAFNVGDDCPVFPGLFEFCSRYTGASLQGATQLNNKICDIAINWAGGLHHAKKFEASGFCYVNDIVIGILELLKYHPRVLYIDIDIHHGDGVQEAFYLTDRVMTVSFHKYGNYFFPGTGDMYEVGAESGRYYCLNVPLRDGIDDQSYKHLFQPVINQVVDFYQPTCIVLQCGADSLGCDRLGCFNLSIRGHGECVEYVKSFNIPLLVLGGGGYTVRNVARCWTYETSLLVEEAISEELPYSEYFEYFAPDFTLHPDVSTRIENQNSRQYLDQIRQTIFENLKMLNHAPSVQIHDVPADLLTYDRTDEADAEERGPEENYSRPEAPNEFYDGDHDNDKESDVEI

Histone deacetylase 3 [4] = target: T3, Histone deacetylase 3; experiment: Inhibition of human recombinant HDAC3 expressed in baculovirus by using Boc-L-Lys(Ac)-AMC as substrate measured after 24 hrs by fluorescence based analysis
Histone deacetylase 8 = target: T4, Histone deacetylase 8 (Homo sapiens, UniProt Q9BY41); experiment: Inhibition of human recombinant HDAC8 expressed in Escherichia coli BL21 (DE3) cells by using Boc-L-Lys(Ac)-AMC as substrate measured after 24 hrs by fluorescence based analysis
T4 sequence (Q9BY41 whole entry): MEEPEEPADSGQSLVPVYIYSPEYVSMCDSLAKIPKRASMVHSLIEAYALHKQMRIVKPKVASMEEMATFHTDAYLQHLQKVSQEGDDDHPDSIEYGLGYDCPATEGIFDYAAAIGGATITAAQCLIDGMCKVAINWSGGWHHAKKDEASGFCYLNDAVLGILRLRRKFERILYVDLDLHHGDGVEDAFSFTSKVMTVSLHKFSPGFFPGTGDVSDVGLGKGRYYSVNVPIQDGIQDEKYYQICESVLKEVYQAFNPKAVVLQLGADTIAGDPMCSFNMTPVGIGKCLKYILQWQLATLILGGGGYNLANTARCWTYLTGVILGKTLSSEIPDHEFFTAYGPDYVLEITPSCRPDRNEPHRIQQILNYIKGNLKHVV

Histone deacetylase 2 [5] = target: T2, Histone deacetylase 2; experiment: Inhibition of human recombinant HDAC2 expressed in baculovirus by using Boc-L-Lys(Ac)-AMC as substrate measured after 24 hrs by fluorescence based analysis
Histone deacetylase 1 [6] = target: T1, Histone deacetylase 1; experiment: Inhibition of human recombinant HDAC1 expressed in baculovirus by using Boc-L-Lys(Ac)-AMC as substrate measured after 24 hrs by fluorescence based analysis
Histone deacetylase 3 [7] = target: T3, Histone deacetylase 3; experiment: Inhibition of HDAC3 (unknown origin)
Histone deacetylase 1 [8] = target: T1, Histone deacetylase 1; experiment: Inhibition of HDAC1 (unknown origin) using Boc-Lys (Ac)-AMC as substrate measured after 30 mins by fluorescence based analysis
Histone deacetylase 2 [9] = target: T2, Histone deacetylase 2; experiment: Inhibition of HDAC2 (unknown origin)
Histone deacetylase = experiment: Inhibition of human HDAC using human HeLa cell nuclear extract measured after 60 mins by fluorescence assay; assay type: subcellular, Nucleus
Histone deacetylase 1 [10] = target: T1, Histone deacetylase 1; experiment: Inhibition of HDAC1 (unknown origin)
Histone deacetylase 1 [11] = target: T1, Histone deacetylase 1; experiment: Inhibition of human HDAC1 using fluorogenic as substrate measured after 30 mins by fluorescence based analysis
Histone deacetylase 3 [12] = target: T3, Histone deacetylase 3; experiment: Inhibition of human HDAC3 using fluorogenic as substrate measured after 30 mins by fluorescence based analysis
Histone deacetylase 1 [13] = target: T1, Histone deacetylase 1; experiment: Inhibition of HDAC1 (unknown origin) using acetylated 7-amino-4-methylcoumarin (AMC) as peptide substrate measured after 20 mins by fluorescence based analysis
Histone deacetylase 2 [14] = target: T2, Histone deacetylase 2; experiment: Inhibition of HDAC2 (unknown origin) using acetylated 7-amino-4-methylcoumarin (AMC) as peptide substrate measured after 20 mins by fluorescence based analysis
Histone deacetylase 3 [15] = target: T3, Histone deacetylase 3; experiment: Inhibition of HDAC3 (unknown origin) using acetylated 7-amino-4-methylcoumarin (AMC) as peptide substrate measured after 20 mins by fluorescence based analysis

T1 sequence (Q13547 whole entry): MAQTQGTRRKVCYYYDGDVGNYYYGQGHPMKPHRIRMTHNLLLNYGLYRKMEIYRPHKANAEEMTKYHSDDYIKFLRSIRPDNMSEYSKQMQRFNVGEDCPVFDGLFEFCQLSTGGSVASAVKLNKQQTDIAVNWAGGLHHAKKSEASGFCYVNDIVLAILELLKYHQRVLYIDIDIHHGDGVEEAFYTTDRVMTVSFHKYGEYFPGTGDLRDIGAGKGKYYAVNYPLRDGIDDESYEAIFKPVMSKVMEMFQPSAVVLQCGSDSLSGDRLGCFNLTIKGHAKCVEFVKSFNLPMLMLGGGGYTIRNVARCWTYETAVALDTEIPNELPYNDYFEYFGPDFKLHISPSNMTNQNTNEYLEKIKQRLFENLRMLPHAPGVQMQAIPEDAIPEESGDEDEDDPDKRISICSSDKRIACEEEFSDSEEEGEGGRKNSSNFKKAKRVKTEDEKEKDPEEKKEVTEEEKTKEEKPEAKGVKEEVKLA

SMILES: Cc1ccc(Cc2cn(CCCCCCC(=O)NO)c3ccc(-c4c(C)noc4C)cc23)cc1
- IC50 (Histone deacetylase 1 [1]): 431 nM
- IC50 (Histone deacetylase 2 [2]): 438 nM
- IC50 (Histone deacetylase 3 [3]): 18 nM

SMILES: O=C(CCCCCCNCc1cc2ccccc2[nH]1)NO
- IC50 (Histone deacetylase 3 [4]): 25 nM
- IC50 (Histone deacetylase 8): 620 nM
- IC50 (Histone deacetylase 2 [5]): 260 nM
- IC50 (Histone deacetylase 1 [6]): 61 nM

SMILES: O=C(CCCCCCNCc1ccc([N+](=O)[O-])cc1)NO
- IC50 (Histone deacetylase 3 [4]): 1000 nM
- IC50 (Histone deacetylase 8): 2100 nM
- IC50 (Histone deacetylase 2 [5]): 2900 nM
- IC50 (Histone deacetylase 1 [6]): 220 nM

SMILES: O=C(CCCCCCNCc1ccc2ccccc2c1)NO
- IC50 (Histone deacetylase 3 [4]): 68 nM
- IC50 (Histone deacetylase 8): 320 nM
- IC50 (Histone deacetylase 2 [5]): 320 nM
- IC50 (Histone deacetylase 1 [6]): 39 nM

SMILES: O=C(CCCCCCNCc1ccc(F)cc1)NO
- IC50 (Histone deacetylase 3 [4]): 240 nM
- IC50 (Histone deacetylase 8): 1700 nM
- IC50 (Histone deacetylase 2 [5]): 1500 nM
- IC50 (Histone deacetylase 1 [6]): 220 nM

SMILES: Cc1cc(CNCCCCCCC(=O)NO)ccc1F
- IC50 (Histone deacetylase 3 [4]): 190 nM
- IC50 (Histone deacetylase 8): 2800 nM
- IC50 (Histone deacetylase 2 [5]): 790 nM
- IC50 (Histone deacetylase 1 [6]): 140 nM

SMILES: O=C(CCCCCCN(Cc1ccc2ccccc2c1)Cc1ccc2ccccc2c1)NO
- IC50 (Histone deacetylase 3 [4]): 950 nM
- IC50 (Histone deacetylase 8): 5400 nM
- IC50 (Histone deacetylase 2 [5]): 4200 nM
- IC50 (Histone deacetylase 1 [6]): 1100 nM

SMILES: O=C(CCCCCCNCc1ccc(-c2ccccc2)s1)NO
- IC50 (Histone deacetylase 3 [4]): 38 nM
- IC50 (Histone deacetylase 8): 550 nM
- IC50 (Histone deacetylase 2 [5]): 690 nM
- IC50 (Histone deacetylase 1 [6]): 48 nM

SMILES: CCC(=O)CCCCC[C@H](NC(=O)C(C)(C)N(C)C)c1ncc(-c2cc3ccccc3nc2OC)o1
- IC50 (Histone deacetylase 3 [7]): 0.6 nM

SMILES: Cc1noc(C)c1-c1ccc2c(c1)c(CCc1ccccc1)cn2CCCCCCC(=O)NO
- IC50 (Histone deacetylase 1 [1]): 240 nM
- IC50 (Histone deacetylase 2 [2]): 139 nM
- IC50 (Histone deacetylase 3 [3]): 28 nM

SMILES: COC(=O)/C=C/c1ccc(OCCCCNc2cc3c([nH]c4ccccc43)c(-c3ccc(OC)cc3)n2)c(OC)c1
- IC50 (Histone deacetylase 1 [8]): 61 nM

SMILES: Nc1ccccc1NC(=O)c1ccc(-c2cn(CCc3cccc([N+](=O)[O-])c3)nn2)s1
- IC50 (Histone deacetylase 2 [9]): > 100 nM

SMILES: O=C(NO)c1ccc(NC(=O)[C@@H](NC(=O)c2ccc(Cl)cc2)c2ccccc2)cc1
- IC50 (Histone deacetylase): 348.6 nM

SMILES: Nc1ccccc1NC(=O)c1ccc(-c2cn(CCc3ccsc3)nn2)cc1
- IC50 (Histone deacetylase 1 [10]): > 100000 nM
- IC50 (Histone deacetylase 2 [9]): > 19 nM

SMILES: CN(C)c1cccc2c(S(=O)(=O)N[C@H](C(=O)Nc3ccc(C(=O)NO)cc3)c3ccccc3)cccc12
- IC50 (Histone deacetylase): 9.7 nM
- IC50 (Histone deacetylase 1 [11]): 24.7 nM
- IC50 (Histone deacetylase 3 [12]): 24.4 nM

SMILES: CCCCNNC(=O)c1ccccc1
- IC50 (Histone deacetylase 1 [13]): > 50000 nM
- IC50 (Histone deacetylase 2 [14]): > 50000 nM
- IC50 (Histone deacetylase 3 [15]): > 50000 nM

SMILES: CCC(=O)CCCCC[C@H](NC(=O)N1CCOCC1)c1ncc(-c2cc3ccccc3nc2OC)o1
- IC50 (Histone deacetylase 3 [7]): 7 nM

SMILES: Cc1noc(C)c1-c1ccc2c(c1)c(Cc1cccc(C(F)(F)F)c1)cn2CCCCCCC(=O)NO
- IC50 (Histone deacetylase 1 [1]): 31 nM
- IC50 (Histone deacetylase 2 [2]): 79 nM
- IC50 (Histone deacetylase 3 [3]): 13 nM

SMILES: Cc1noc(C)c1-c1ccc2c(c1)c(Cc1ccccc1)cn2CCCCCCC(=O)NO
- IC50 (Histone deacetylase 1 [1]): 179 nM
- IC50 (Histone deacetylase 2 [2]): 118 nM
- IC50 (Histone deacetylase 3 [3]): 23 nM
